From a polymer gas permeability compilation come the findings set out here.

`*C(=C(*)c1ccc(C(C)(C)C)cc1)c1ccc(O[Si](C)(C)C(C)(C)C)cc1` (repeat unit) gave a CH4 permeability of 540 Barrer, a CO2 permeability of 2300 Barrer, an H2 permeability of 1000 Barrer and an N2 permeability of 210 Barrer. The molecule also gave an O2 permeability of 470 Barrer.
As for `*C(=C(*)c1ccc(O[Si](C)(C)C(C)(C)C)cc1)c1ccc(F)cc1` (repeat unit), the CH4 permeability was 140 Barrer, the CO2 permeability was 800 Barrer, the H2 permeability was found to be 315 Barrer and the N2 permeability came out at 55 Barrer. Also, the O2 permeability was 140 Barrer.
`*Oc1c(-c2ccccc2)cc(*)cc1-c1ccccc1` (repeat unit) registered a CH4 permeability of 2.7 Barrer, a CO2 permeability of 39.9 Barrer, an H2 permeability of 28 Barrer and an N2 permeability of 1.5 Barrer. Further, the O2 permeability stood at 7.7 Barrer.
`*Oc1c(Br)cc(C(C)(C)c2cc(Br)c(OC(=O)c3cccc(C(*)=O)c3)c(Br)c2)cc1Br` (repeat unit) registered a CH4 permeability of 0.142 Barrer, a CO2 permeability of 4.93 Barrer, an H2 permeability of 18.1 Barrer and an N2 permeability of 0.179 Barrer. Besides, the O2 permeability was found to be 1.29 Barrer.
The matching figures for `*Oc1c(Br)cc(C(c2cc(Br)c(OC(=O)c3cc(C(*)=O)cc(C(C)(C)C)c3)c(Br)c2)(C(F)(F)F)C(F)(F)F)cc1Br` (repeat unit): 3.36 Barrer, 85.1 Barrer, 149 Barrer, 4.47 Barrer and 22.1 Barrer.
In turn, `*Oc1c(Br)cc(C(c2cc(Br)c(OC(=O)c3cccc(C(*)=O)c3)c(Br)c2)(C(F)(F)F)C(F)(F)F)cc1Br` (repeat unit) gave a CH4 permeability of 0.597 Barrer, a CO2 permeability of 35.6 Barrer, an H2 permeability of 65 Barrer and an N2 permeability of 1.07 Barrer. In addition, the O2 permeability was 6.75 Barrer.
`*Oc1c(Br)cc(C2(c3cc(Br)c(OC(=O)c4cc(C(*)=O)cc(C(C)(C)C)c4)c(Br)c3)OC(=O)c3ccccc32)cc1Br` (repeat unit) came in with a CH4 permeability of 1.09 Barrer, a CO2 permeability of 30.6 Barrer, an H2 permeability of 67.4 Barrer and an N2 permeability of 1.19 Barrer. For the same molecule, the O2 permeability came out at 7.41 Barrer.
`*Oc1c(Br)cc(C2(c3cc(Br)c(OC(=O)c4cccc(C(*)=O)c4)c(Br)c3)OC(=O)c3ccccc32)cc1Br` (repeat unit) displayed a CH4 permeability of 0.206 Barrer, a CO2 permeability of 8.34 Barrer, an H2 permeability of 27.1 Barrer and an N2 permeability of 0.282 Barrer. For the same molecule, the O2 permeability amounted to 1.96 Barrer.
`*Oc1c(C)cc(*)c(C(=O)c2ccc(C)cc2)c1C` (repeat unit) gave a CH4 permeability of 1.49 Barrer, a CO2 permeability of 21.4 Barrer, an N2 permeability of 2.42 Barrer and an O2 permeability of 7.36 Barrer.
In turn, `*Oc1c(C)cc(*)c(C(=O)c2ccc([N+](=O)[O-])cc2)c1C` (repeat unit) came in with a CH4 permeability of 0.76 Barrer, a CO2 permeability of 11.4 Barrer, an N2 permeability of 1.27 Barrer and an O2 permeability of 5.04 Barrer.
As to `*Oc1c(C)cc(*)c(C(=O)c2ccccc2)c1C` (repeat unit), the CH4 permeability came out at 0.95 Barrer, the CO2 permeability came to 14.3 Barrer, the N2 permeability came to 1.59 Barrer and the O2 permeability was 6 Barrer.
`*Oc1c(C)cc(-c2cc(C)c(Oc3ccc(S(=O)(=O)c4ccc(*)cc4)cc3)c(C)c2)cc1C` (repeat unit): the CH4 permeability was 0.925 Barrer, the CO2 permeability came to 18.6 Barrer, the H2 permeability turned out to be 11.1 Barrer and the N2 permeability was found to be 0.91 Barrer. The O2 permeability amounted to 4.55 Barrer.
The matching figures for `*Oc1c(C)cc(-c2cc(C)c(Oc3ccc(S(=O)(=O)c4ccc(*)cc4)cc3)c(C)c2C)c(C)c1C` (repeat unit): 0.94 Barrer, 25.5 Barrer, 63 Barrer, 1.2 Barrer and 6 Barrer.
The matching figures for `*Oc1c(C)cc(C(C)(C)c2cc(C)c(OC(*)=O)c(C)c2)cc1C` (repeat unit): 0.89 Barrer, 18.6 Barrer, 32 Barrer, 1.1 Barrer and 5.6 Barrer.
The matching figures for `*Oc1c(C)cc(C(C)(C)c2cc(C)c(OC(=O)c3cc(C(*)=O)cc(C(C)(C)C)c3)c(C)c2)cc1C` (repeat unit): 2.72 Barrer, 45.3 Barrer, 96 Barrer, 2.6 Barrer and 12.7 Barrer.
The molecule `*Oc1c(C)cc(C(C)(C)c2cc(C)c(OC(=O)c3cccc(C(*)=O)c3)c(Br)c2)cc1Br` (repeat unit) showed a CH4 permeability of 0.151 Barrer, a CO2 permeability of 5.45 Barrer, an H2 permeability of 23.3 Barrer and an N2 permeability of 0.219 Barrer. Moreover, the O2 permeability came out at 1.52 Barrer.
In turn, `*Oc1c(C)cc(C(C)(C)c2cc(C)c(Oc3ccc(S(=O)(=O)c4ccc(*)cc4)cc3)c(C)c2)cc1C` (repeat unit) showed a CH4 permeability of 0.95 Barrer, a CO2 permeability of 21 Barrer, an N2 permeability of 1.06 Barrer and an O2 permeability of 5.6 Barrer.
For `*Oc1c(C)cc(C(C)(C)c2ccc(C(C)(C)c3cc(C)c(Oc4ccc(S(=O)(=O)c5ccc(*)cc5)cc4)c(C)c3)cc2)cc1C` (repeat unit), in that order: 0.6 Barrer, 13.2 Barrer, 0.571 Barrer and 3.2 Barrer.
For `*Oc1c(C)cc(C(c2cc(C)c(OC(*)=O)c(C)c2)(C(F)(F)F)C(F)(F)F)cc1C` (repeat unit), the CH4 permeability came out at 2.79 Barrer, the CO2 permeability stood at 71.5 Barrer, the H2 permeability was 126 Barrer and the N2 permeability is 4.75 Barrer. Further, the O2 permeability came out at 20.9 Barrer.
With `*Oc1cc(C)c(C(c2cc(C(C)C)c(Oc3ccc(S(=O)(=O)c4ccc(*)cc4)cc3)cc2C)c2ccccc2C(=O)O)cc1C(C)C` (repeat unit), the CH4 permeability came out at 1.13 Barrer, the CO2 permeability came to 25.1 Barrer, the H2 permeability is 49.6 Barrer and the N2 permeability was 0.757 Barrer. This molecule gave an O2 permeability of 4.53 Barrer.
`*Oc1cc(C)c(C2(c3cc(C(C)C)c(Oc4ccc(S(=O)(=O)c5ccc(*)cc5)cc4)cc3C)OC(=O)c3ccccc32)cc1C(C)C` (repeat unit) registered a CH4 permeability of 0.928 Barrer, a CO2 permeability of 19.4 Barrer, an H2 permeability of 30.6 Barrer and an N2 permeability of 0.699 Barrer. Further, the O2 permeability was 4.85 Barrer.
In turn, `*Oc1cc2c(cc1O*)C1(CC2(C)C)CC(C)(C)c2cc3c(cc21)Oc1c(C#N)c(*)c(*)c(C#N)c1O3` (repeat unit) showed a CH4 permeability of 298 Barrer, a CO2 permeability of 5090 Barrer, an H2 permeability of 2280 Barrer and an N2 permeability of 256 Barrer. The molecule further returned an O2 permeability of 913 Barrer.
The molecule `*Oc1cc2c(cc1O*)C1(CC2(C)C)CC(C)(C)c2cc3c(cc21)Oc1c(CN)c(*)c(*)c(CN)c1O3` (repeat unit) showed a CH4 permeability of 257 Barrer, a CO2 permeability of 1590 Barrer, an H2 permeability of 2280 Barrer and an N2 permeability of 176 Barrer. This molecule showed an O2 permeability of 752 Barrer.
For `*Oc1cc2c(cc1O*)C1(CC2(C)C)CC(C)(C)c2cc3c(cc21)Oc1cc2nc4cc5c(cc4nc2cc1O3)C(C)(C)CC51CC(C)(C)c2cc3nc4cc(*)c(*)cc4nc3cc21` (repeat unit), in that order: 62 Barrer, 1100 Barrer, 860 Barrer, 42 Barrer and 190 Barrer.
On to `*Oc1cc2c(cc1O*)C1(c3cc(C)c(C)cc3-2)c2cc(C)c(C)cc2-c2cc3c(cc21)Oc1c(C#N)c(*)c(*)c(C#N)c1O3` (repeat unit), for which the CH4 permeability was 1100 Barrer, the CO2 permeability came out at 13100 Barrer, the H2 permeability came out at 6700 Barrer and the N2 permeability was determined as 658 Barrer. The O2 permeability amounted to 2360 Barrer.
`*Oc1ccc(-c2c(-c3ccc(Br)cc3)c(-c3ccc(Br)cc3)c(-c3ccc4c(c3)Oc3c(C#N)c(*)c(*)c(C#N)c3O4)c(-c3ccc(Br)cc3)c2-c2ccc(Br)cc2)cc1O*` (repeat unit) displayed a CH4 permeability of 102 Barrer, a CO2 permeability of 1430 Barrer, an H2 permeability of 694 Barrer and an N2 permeability of 54 Barrer. This molecule also gave an O2 permeability of 203 Barrer.
In turn, `*Oc1ccc(-c2c(-c3ccccc3)c(-c3ccccc3)c(-c3ccc4c(c3)Oc3c(C#N)c(*)c(*)c(C#N)c3O4)c(-c3ccccc3)c2-c2ccccc2)cc1O*` (repeat unit) displayed a CH4 permeability of 192 Barrer, a CO2 permeability of 2390 Barrer, an H2 permeability of 1000 Barrer and an N2 permeability of 107 Barrer. The O2 permeability was determined as 340 Barrer.
The matching figures for `*Oc1ccc(-c2ccc(C3CCC(Oc4ccc(C5(c6ccc(*)cc6)c6ccccc6-c6ccccc65)cc4)C(C(F)(F)F)C3)s2)cc1C(F)(F)F` (repeat unit): 1.8 Barrer, 35.7 Barrer, 55 Barrer, 1.99 Barrer and 8.4 Barrer.
For `*Oc1ccc(C(=O)c2ccc(-c3ccc(C(=O)c4ccc(Oc5ccc(C(C)(C)c6ccc(*)cc6)cc5)cc4)cc3)cc2)cc1` (repeat unit), in that order: 0.14 Barrer, 3.3 Barrer, 8.9 Barrer, 0.13 Barrer and 0.75 Barrer.
Take `*Oc1ccc(C(=O)c2cccc(-c3cccc(C(=O)c4ccc(Oc5ccc(C(c6ccc(*)cc6)(C(F)(F)F)C(F)(F)F)cc5)cc4)c3)c2)cc1` (repeat unit): the CH4 permeability is 0.058 Barrer, the CO2 permeability worked out at 1.95 Barrer, the N2 permeability stood at 0.0792 Barrer and the O2 permeability came to 0.61 Barrer.
